test system: Zucker Fatty rats; assay: Evaluation of hypoglycemic action; format: in vivo, rat; conditions: gavage 3 mg/kg, HCl salt form, 2 or 4 hours after dosing
Description: Zucker Fatty rats (male, 11-19 week-old, Charles River Japan, Inc.) known to spontaneously develop hyperglycemia were randomly assigned to the groups (6 per group). The animals were individually housed in a polycarbonate cage and allowed to drink water freely from a watering bottle. The animals in the compound groups were gavaged with compound No. 10, 87, 19, or 69 at the dose of 3 mg/kg. These compounds were used as HCl salt form thereof, converted by the method according to Example 3, step 6 from TFA salt form thereof upon the necessity. The animals in the control group were only treated with the vehicle (0.5% methylcellulose). Animals were allowed free access to the feed (CRF-1, Oriental Yeast Co., Ltd.) during the experiment. An aspirate of the blood (6 μL) was collected from the tail vein on the time point of immediately before dosing (time 0) as well as 2, 4, and 8 hours after dosing. The blood glucose levels were determined with ACCU-CHEK Aviva (Roche Diagnostics K.K.).

Row | SMILES | blood glucose levels compared with vehicle group
1 | CCCN(CC(=O)O)C(=O)C(C)(C)Cc1ccc(C(=O)Oc2ccc(C(=N)N)cc2F)s1.Cl [Compound 10, N-{3-[5-(4-amidino-2-fluorophenoxycarbonyl)thiophen-2-yl]-2,2-dimethylpropionyl}-N-propylglycine hydrochloride] | significantly decreased
2 | CCC(CC)(Cc1ccc(C(=O)Oc2ccc(C(=N)N)cc2F)s1)C(=O)N[C@@H](CC(=O)O)C(=O)O.Cl [Compound 19] | significantly decreased
3 | CC(C)(Cc1ccc(C(=O)Oc2ccc(C(=N)N)cc2F)s1)C(=O)N[C@@H](C(=O)O)c1ccc(O)cc1 [Compound 69] | significantly decreased

Source: US9655879B2, “Heteroarylcarboxylic acid ester derivative” (EA Pharma Co., Ltd., priority 2012, dated 2017)
